According to ChEMBL document CHEMBL3244122, “Symbiotic approach to drug design: antihypertensive beta-adrenergic blocking agents” (J Med Chem, 1979):

How the values were obtained:
Rattus norvegicus [1] = assay: Antihypertensive activity in spontaneously hypertensive Wistar-Okamoto rat assessed as maximal fall in mean arterial pressure at 20 mg/kg, ip; assay type: functional, Artery; settings: route intraperitoneal
Canis familiaris [2] = assay: In vivo beta-adrenergic receptor blockade in iv dosed anesthetized dog assessed as inhibition of isoproterenol-induced tachycardia; assay type: functional; settings: Canis lupus familiaris
Canis familiaris [3] = assay: In vivo beta-adrenergic receptor blockade in iv dosed anesthetized dog assessed as inhibition of isoproterenol-induced hypotension; assay type: functional; settings: Canis lupus familiaris
Canis familiaris [4] = assay: Vasodilatory activity in anesthetized dog assessed as increase in iliac blood flow […] measured after 800 ug/kg, iv beta-adrenergic receptor blocker timolol administration; assay type: functional, Canis lupus familiaris, Artery
Canis familiaris [5] = assay: Vasodilatory activity in anesthetized dog assessed as increase in iliac blood flow […] ia; assay type: functional, Canis lupus familiaris, Artery
Rattus norvegicus [6] = assay: Antihypertensive activity in spontaneously hypertensive Wistar-Okamoto rat assessed as duration of action at 20 mg/kg, po; assay type: functional
Canis familiaris [7] = assay: Vasodilatory activity in anesthetized dog assessed as increase in iliac blood flow […] measured after 2000 ug/kg, iv beta-adrenergic receptor blocker timolol administration; assay type: functional, Canis lupus familiaris, Artery
Rattus norvegicus [8] = assay: Antihypertensive activity in spontaneously hypertensive Wistar-Okamoto rat assessed as maximal fall in mean arterial pressure at 5 mg/kg, po; assay type: functional, Artery
Oryctolagus cuniculus = assay: Toxicity in rabbit assessed as teratogenicity measured after high drug dose administration; assay type: organism-based; settings: in vivo
Rattus norvegicus [9] = assay: Antihypertensive activity in po dosed spontaneously hypertensive Wistar-Okamoto rat assessed as maximal fall in mean arterial pressure; assay type: functional, organism-based; settings: Artery
Rattus norvegicus [10] = assay: Antihypertensive activity in spontaneously hypertensive Wistar-Okamoto rat assessed as maximal fall in mean arterial pressure at 20 mg/kg, po; assay type: functional, Artery
Rattus norvegicus [11] = assay: Antihypertensive activity in spontaneously hypertensive Wistar-Okamoto rat assessed as duration of action at 1.25 mg/kg, po; assay type: functional
Rattus norvegicus [12] = assay: Antihypertensive activity in spontaneously hypertensive Wistar-Okamoto rat assessed as maximal fall in mean arterial pressure at 1.25 mg/kg, po; assay type: functional, Artery
Rattus norvegicus [13] = assay: Antihypertensive activity in spontaneously hypertensive Wistar-Okamoto rat assessed as duration of action at 5 mg/kg, po; assay type: functional
Canis familiaris [14] = assay: Vasodilatory activity in anesthetized dog assessed as increase in iliac blood flow […] measured after 320 ug/kg, iv beta-adrenergic receptor blocker timolol administration; assay type: functional, Canis lupus familiaris, Artery
Rattus norvegicus [15] = assay: Antihypertensive activity in spontaneously hypertensive Wistar-Okamoto rat assessed as maximal fall in mean arterial pressure at 0.312 mg/kg, po; assay type: functional, Artery
Canis familiaris [16] = assay: Vasodilatory activity in anesthetized dog assessed as increase in iliac blood flow at 250 mg, ia measured after 800 ug/kg, iv beta-adrenergic receptor blocker timolol administration; assay type: functional, Canis lupus familiaris, Artery
Canis familiaris [17] = assay: Vasodilatory activity in anesthetized dog assessed as increase in iliac blood flow at 64 mg, ia measured after 800 ug/kg, iv beta-adrenergic receptor blocker timolol administration; assay type: functional, Canis lupus familiaris, Artery
Rattus norvegicus [18] = assay: Antihypertensive activity in spontaneously hypertensive Wistar-Okamoto rat assessed as duration of action at 0.312 mg/kg, po; assay type: functional
Rattus norvegicus [19] = assay: Antihypertensive activity in spontaneously hypertensive Wistar-Okamoto rat assessed as maximal fall in mean arterial pressure at 0.625 mg/kg, po; assay type: functional, Artery
Rattus norvegicus [20] = assay: Antihypertensive activity in spontaneously hypertensive Wistar-Okamoto rat assessed as duration of action at 20 mg/kg, ip; assay type: functional; settings: route intraperitoneal
Rattus norvegicus [21] = assay: Antihypertensive activity in spontaneously hypertensive Wistar-Okamoto rat assessed as duration of action at 2 mg/kg, po; assay type: functional
Canis familiaris [22] = assay: Vasodilatory activity in anesthetized dog assessed as increase in iliac blood flow at 800 mg, ia measured after 320 ug/kg, iv beta-adrenergic receptor blocker timolol administration; assay type: functional, Canis lupus familiaris, Artery
Canis familiaris [23] = assay: Vasodilatory activity in anesthetized dog assessed as increase in iliac blood flow at 800 mg, ia; assay type: functional, Canis lupus familiaris, Artery
Rattus norvegicus [24] = assay: Antihypertensive activity in spontaneously hypertensive Wistar-Okamoto rat assessed as maximal fall in mean arterial pressure at 2 mg/kg, po; assay type: functional, Artery
Rattus norvegicus [25] = assay: Antihypertensive activity in spontaneously hypertensive Wistar-Okamoto rat assessed as maximal fall in mean arterial pressure at 8 mg/kg, po; assay type: functional, Artery
Rattus norvegicus [26] = assay: Antihypertensive activity in spontaneously hypertensive Wistar-Okamoto rat assessed as duration of action at 8 mg/kg, po; assay type: functional
Canis familiaris [27] = assay: Vasodilatory activity in anesthetized dog assessed as increase in iliac blood flow at 800 mg, ia measured after 800 ug/kg, iv beta-adrenergic receptor blocker timolol administration; assay type: functional, Canis lupus familiaris, Artery
Rattus norvegicus [28] = assay: Antihypertensive activity in spontaneously hypertensive Wistar-Okamoto rat assessed as maximal fall in mean arterial pressure at 1 mg/kg, po; assay type: functional, Artery
Rattus norvegicus [29] = assay: Antihypertensive activity in spontaneously hypertensive Wistar-Okamoto rat assessed as duration of action at 1 mg/kg, po; assay type: functional
Rattus norvegicus [30] = assay: Antihypertensive activity in spontaneously hypertensive Wistar-Okamoto rat assessed as maximal fall in mean arterial pressure at 0.078 mg/kg, po; assay type: functional, Artery
Canis familiaris [31] = assay: Vasodilatory activity in anesthetized dog assessed as increase in iliac blood flow at 64 mg, ia measured after 2000 ug/kg, iv beta-adrenergic receptor blocker timolol administration; assay type: functional, Canis lupus familiaris, Artery
Canis familiaris [32] = assay: Vasodilatory activity in anesthetized dog assessed as increase in iliac blood flow at 250 mg, ia measured after 2000 ug/kg, iv beta-adrenergic receptor blocker timolol administration; assay type: functional, Canis lupus familiaris, Artery
Rattus norvegicus [33] = assay: Antihypertensive activity in spontaneously hypertensive Wistar-Okamoto rat assessed as maximal fall in mean arterial pressure at 5 mg/kg, ip; assay type: functional, Artery; settings: route intraperitoneal
Rattus norvegicus [34] = assay: Antihypertensive activity in spontaneously hypertensive Wistar-Okamoto rat assessed as duration of action at 5 mg/kg, ip; assay type: functional; settings: route intraperitoneal

Row | SMILES | ED50 (Canis familiaris [2]) [mg/kg] | ED50 (Canis familiaris [3]) [mg/kg] | Activity (Canis familiaris [5]) [mL/min] | Time (Rattus norvegicus [6]) [h] | Activity (Canis familiaris [7]) [mL/min] | Activity (Rattus norvegicus [8]) [mmHg] | Activity (Rattus norvegicus [10]) [mmHg] | Activity (Rattus norvegicus [12]) [mmHg] | other results
1 | CC(C)(C)NCC(O)COc1ccc(-c2ncc(C(F)(F)F)[nH]2)cn1 (stereo unspecified) | 0.0025 | 0.058 | 103 | >7 |  |  |  |  | Activity (Rattus norvegicus [1]): 40 mmHg; Activity (Canis familiaris [4]): 38 mL/min
2 | Cc1ccc(C#N)c(OCC(O)CNC(C)(C)C)n1 (stereo unspecified) | < 0.01 | < 0.01 | 70 |  | 43 | 5 |  |  | 
3 | Cc1cnc(-c2ccc(OC[C@@H](O)CNC(C)(C)C)cc2)[nH]1 | 0.03 | > 1 |  |  |  |  |  |  | 
4 | CC(C)(C)NCC(O)COc1ncccc1C#N (stereo unspecified) |  |  |  |  |  |  |  |  | Activity (Oryctolagus cuniculus): Toxic; inhibition (Rattus norvegicus [9]): Dose-dependent effect
5 | Cc1cc(C)c(C#N)c(OCC(O)CNC(C)(C)C)n1 (stereo unspecified) | 0.0015 | 0.0026 | 33 | 8 | 3 | 16 | 21 |  | 
6 | Cc1c[nH]c(-c2ccc(OCC(O)CNC(C)(C)C)cc2)n1 (stereo unspecified) |  |  | 60 | 8 |  | 19 | 41 | 24 | Time (Rattus norvegicus [11]): <6 h; Time (Rattus norvegicus [13]): <8 h; Activity (Canis familiaris [14]): 33 mL/min
7 | CC(C)(C)NCC(O)COc1ncccc1C(F)(F)F (stereo unspecified) | < 0.001 | < 0.001 | 100 | 18 | 145 |  | 36 | 28 | Activity (Rattus norvegicus [15]): 15 mmHg; Activity (Canis familiaris [16]): 60 mL/min; Time (Rattus norvegicus [11]): 4 h; Activity (Canis familiaris [17]): 41 mL/min
8 | CC(C)(C)NC[C@H](O)COc1nsnc1N1CCOCC1 [TIMOLOL] | 0.0024 | 0.0013 |  |  |  |  |  | -1 | Activity (Rattus norvegicus [15]): 32 mmHg; Time (Rattus norvegicus [18]): 8 h; Activity (Rattus norvegicus [19]): 0 mmHg
9 | CC(C)(C)NCC(O)COc1cc(C#N)ccn1 (stereo unspecified) | 0.03 | > 0.03 | 35 | 4 |  | 30 | 55 | 15 | Time (Rattus norvegicus [13]): 2 h; Activity (Canis familiaris [4]): 18 mL/min
10 | CN(C)CCOc1ncccc1C#N |  |  | 100 |  | 72 |  |  |  | Activity (Rattus norvegicus [1]): 49 mmHg; Time (Rattus norvegicus [20]): 1 h
11 | CC(C)(C)NCC(O)COc1ncccc1S(C)(=O)=O (stereo unspecified) |  |  | 10 |  |  | 12 | 13 |  | Activity (Canis familiaris [4]): 8 mL/min
12 | FC(F)(F)c1cnc(-c2cccnc2)[nH]1 |  |  |  |  |  |  |  |  | Time (Rattus norvegicus [21]): 6 h; Activity (Canis familiaris [22]): 99 mL/min; Activity (Canis familiaris [23]): 93 mL/min; Activity (Rattus norvegicus [24]): 39 mmHg; Activity (Rattus norvegicus [25]): 48 mmHg; Time (Rattus norvegicus [26]): >6 h; Activity (Canis familiaris [27]): 76 mL/min; Activity (Rattus norvegicus [28]): 21 mmHg; Time (Rattus norvegicus [29]): 2 h
13 | CC(C)(C)NC[C@H](O)COc1ncccc1C#N.Cl | 0.0015 | 0.0052 | 98 |  | 90 |  |  | 47 | Activity (Rattus norvegicus [15]): 30 mmHg; Activity (Rattus norvegicus [30]): 19 mmHg; Time (Rattus norvegicus [18]): 1 h; Activity (Canis familiaris [16]): 62 mL/min; Time (Rattus norvegicus [11]): >12 h; Activity (Canis familiaris [17]): 38 mL/min
14 | NNc1nncc2ccccc12 [HYDRALAZINE] |  |  | 66 |  |  |  |  |  | Time (Rattus norvegicus [21]): >7 h; Activity (Rattus norvegicus [24]): 40 mmHg; Activity (Rattus norvegicus [28]): 30 mmHg; Time (Rattus norvegicus [29]): 6 h
15 | CC(C)(C)NC[C@@H](O)COc1ncccc1C#N.Cl | 0.1 | 0.1 |  | 4 | 82 | 27 | 40 | 22 | Activity (Canis familiaris [31]): 13 mL/min; Time (Rattus norvegicus [13]): 1 h; Activity (Canis familiaris [32]): 22 mL/min
16 | CC(C)(C)NCC(O)COc1ccccn1 (stereo unspecified) | 0.01 | 0.07 |  |  | 30 | 10 | 33 |  | 
17 | Cc1cc(OCC(O)CNC(C)(C)C)cc(C)c1-c1ncc(C(F)(F)F)[nH]1 (stereo unspecified) |  |  | 7 | 18 |  | 19 | 30 |  | Time (Rattus norvegicus [13]): 4 h
18 | CC(C)(C)NCC(O)COc1ccc(C#N)cn1 (stereo unspecified) |  |  | -13 |  | 19 |  | 15 |  | Activity (Canis familiaris [4]): -1 mL/min
19 | CC(C)(C)NCC(O)COc1ccc(-c2ncc[nH]2)cc1 (stereo unspecified) |  |  | 36 |  |  |  |  |  | Activity (Rattus norvegicus [1]): 33 mmHg; Time (Rattus norvegicus [20]): 1 h; Activity (Canis familiaris [14]): 31 mL/min
20 | CC(C)NCC(O)COc1cccc2ccccc12 (stereo unspecified) [PROPRANOLOL] | 0.051 | 0.019 |  | 12 |  | 7 | 14 | 12 | Time (Rattus norvegicus [11]): 8 h; Time (Rattus norvegicus [13]): <8 h
21 | CC(C)(C)NCC(O)COc1ccc(-c2nc(C(F)(F)F)c[nH]2)cc1 (stereo unspecified) | 0.009 | 0.036 | 79 |  | 15 | 49 |  | 36 | Activity (Rattus norvegicus [15]): 21 mmHg; Time (Rattus norvegicus [18]): 7 h; Time (Rattus norvegicus [11]): 18 h; Time (Rattus norvegicus [13]): 18 h
22 | CC(C)(C)NC[C@H](O)COc1ccc(-c2ncc[nH]2)cc1 | 0.067 | > 1 |  |  |  |  |  |  | 
23 | CC(C)NCC(O)COc1ncccc1C#N (stereo unspecified) | 0.005 | 0.03 | 59 | 4 | 48 |  | 40 |  | Activity (Rattus norvegicus [1]): 59 mmHg; Activity (Rattus norvegicus [33]): 26 mmHg; Time (Rattus norvegicus [20]): 8 h; Time (Rattus norvegicus [34]): 2 h
24 | CC(C)(C)NCC(O)COc1ccc(-c2ncc(-c3ccccc3)[nH]2)cc1 (stereo unspecified) | 0.038 | 0.083 | 46 | >24 | 42 | 30 | 54 | 20 | Time (Rattus norvegicus [13]): 4 h
